Like-named read-outs stand apart in the source and are kept apart here.
What was measured:
Aβ42 [1] = settings: cited from earlier work
Aβ42 [2] = settings: cited from earlier work; remark: listed apart in the source
hMAO-A = target: T1, hMAO-A (Homo sapiens, UniProt P21397); assay: hMAO-A inhibition (kynuramine to 4-hydroxyquinoline, microsomal recombinant enzyme); assay type: biochemical; settings: read-out: % Inhibition (at 10 µM) hMAO-A
T1 construct: purchased Sigma-Aldrich Quimica S.A., Madrid, Spain; host or cells: insect cells (BTI-TN-5B1-4) infected with recombinant baculovirus
T1 sequence (P21397 1-527): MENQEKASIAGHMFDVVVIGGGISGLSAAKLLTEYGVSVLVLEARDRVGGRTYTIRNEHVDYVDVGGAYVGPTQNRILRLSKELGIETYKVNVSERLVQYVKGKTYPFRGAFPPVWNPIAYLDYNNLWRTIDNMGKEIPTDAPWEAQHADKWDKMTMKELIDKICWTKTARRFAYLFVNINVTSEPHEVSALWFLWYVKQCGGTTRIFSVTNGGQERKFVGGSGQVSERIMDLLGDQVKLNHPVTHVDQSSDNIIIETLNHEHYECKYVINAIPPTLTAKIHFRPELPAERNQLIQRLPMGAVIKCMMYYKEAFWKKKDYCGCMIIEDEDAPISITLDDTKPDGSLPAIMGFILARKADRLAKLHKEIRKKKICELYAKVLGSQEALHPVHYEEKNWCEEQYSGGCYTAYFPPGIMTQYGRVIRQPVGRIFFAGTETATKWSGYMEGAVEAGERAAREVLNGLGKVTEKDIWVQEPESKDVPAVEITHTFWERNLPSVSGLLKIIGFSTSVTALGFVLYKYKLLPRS
Procedure: (§1) The inhibitory activity of the rivastigmine hybrids (RIV–BIM) on hMAO-A and hMAO-B was studied using an experimental protocol described elsewhere with some modifications. The outlined hMAO inhibition was assessed in microsomal MAO isoforms prepared from insect cells (BTI-TN-5B1-4) infected with recombinant baculovirus containing cDNA inserts for hMAO-A or hMAO-B (Sigma-Aldrich Quimica S.A., Madrid, Spain) and by measuring the enzymatic conversion rates of kynuramine into 4-hydroxyquinoline. […] All assays were performed under sodium phosphate-buffered conditions (50 mM, pH = 7.4). […] Then, the reaction was started with the addition of hMAO-A or hMAO-B. Initial velocities were determined spectrophotometrically in a microplate reader (Biotek Synergy HT, Winooski, VT, USA) at 37 °C by measuring the formation of 4-hydroxyquinoline at 316 nm, over a period of at least 30 min (interval of 1 min). Data were analyzed using GraphPad PRISM version 6 for Windows (GraphPad Software®, San Diego, CA, USA). The initial velocities, obtained from the linear phase of product formation, were normalized and plotted against the respective inhibitor concentration. IC50 values were obtained from dose–response curves and were expressed as the mean ± standard deviation. IC50 values were determined from at least three independent experiments, each performed in triplicate.

[3] = Fe(III) complexation by spectrophotometric titration; assay type: physicochemical
Procedure: (§2) The metal complexation studies were performed by spectrophotometric titration, in the same 50% w/w DMSO/water medium used for both ligands alone, with fitting analysis of the UV-Vis spectra by Psequad. The calculated metal-chelating equilibrium models, included in Table 1, show good chelating capacity towards Cu(II) (pCu~10.3–13.6) and Fe(III) (pFe~16.8–17.4), involving complex species with a 1:1 to 1:2 or 1:1 to 1:3 M/L ratio, respectively. Metal coordination is expected to occur primarily through the phenolic oxygen and the imidazole nitrogen N(3) of the BIM moiety.
(§3) The two positional isomeric hybrids 4c and 5a were titrated, alone or in the presence of the metal ions, in a 50% w/w DMSO/H2O medium, at T = 25.0 ± 0.1 °C and ionic strength of (I) 0.1 M KCl, by using a 0.1 M KOH (50% w/w DMSO/H2O) titrant solution. The glass and Ag/AgCl reference electrodes were previously conditioned in different DMSO/H2O mixtures of increasing DMSO % compositions, and the response of the glass electrode was evaluated by strong acid–strong base (HCl/KOH) calibrations with the determination of the Nernst parameters by Gran’s method. […] The spectrophotometric measurements were carried out in a 250–450 nm (L, Cu/L systems) or 250–650 nm (L, Fe/L systems) wavelength range at pH ca 2.5–8.0. Under these specified experimental conditions, the pKw value (14.95) was determined and subsequently used in the calculations. The stepwise protonation constants of the ligands, Ki = [HiL]/[Hi−1L][H], and the overall metal–complex stability constants, βMmHhLl = [MmHhLl]/[M]^m[H]^h[L]^l, were calculated by fitting the spectrophotometric data with the Psequad program. The metal hydrolysis model was determined under the established experimental conditions (I = 0.1 M KCl, 50% w/w DMSO/H2O, T = 25.0 ± 0.1 °C) and the following values of stability constants were included in the equilibrium models related to the Fe(III)/L and Cu(II)/L systems: log βFeH−1 = −4.07, log βFeH−3 = −11.42; log βCu2H−2 = −9.99. The species distribution curves were obtained with the Hyss program.

hMAO-B = target: T2, hMAO-B (Homo sapiens, UniProt P27338); assay: hMAO-B inhibition (kynuramine to 4-hydroxyquinoline, microsomal recombinant enzyme); assay type: biochemical
T2 construct: purchased Sigma-Aldrich Quimica S.A., Madrid, Spain; host or cells: insect cells (BTI-TN-5B1-4) infected with recombinant baculovirus
T2 sequence (P27338 1-520): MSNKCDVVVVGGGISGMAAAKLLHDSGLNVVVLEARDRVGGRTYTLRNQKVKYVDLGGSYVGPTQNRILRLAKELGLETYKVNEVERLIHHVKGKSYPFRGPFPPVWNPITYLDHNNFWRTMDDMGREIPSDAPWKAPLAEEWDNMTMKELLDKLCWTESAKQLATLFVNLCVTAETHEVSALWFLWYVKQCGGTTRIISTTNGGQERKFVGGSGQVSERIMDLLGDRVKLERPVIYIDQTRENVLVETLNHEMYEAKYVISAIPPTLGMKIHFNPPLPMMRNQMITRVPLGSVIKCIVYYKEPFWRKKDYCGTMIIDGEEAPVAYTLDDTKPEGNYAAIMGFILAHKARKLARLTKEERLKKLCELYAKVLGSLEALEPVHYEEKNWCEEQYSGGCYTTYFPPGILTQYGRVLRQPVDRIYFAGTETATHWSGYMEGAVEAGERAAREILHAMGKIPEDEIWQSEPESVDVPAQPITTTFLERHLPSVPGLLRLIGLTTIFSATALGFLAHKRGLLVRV
Procedure: as §1

[4] = Cu(II) complexation by spectrophotometric titration; assay type: physicochemical
Procedure: as §2, §3

[5] = Protonation constants by spectrophotometric titration (Psequad fitting); assay type: physicochemical; settings: pH 7.4, CL = 1 × 10^−5 M
Procedure: To formulate the model for the metal chelation mechanism of compounds 4c and 5a, their protonation constants were first determined by spectrophotometric titrations in a 50% (w/w) DMSO/H2O medium by fitting the experimental data with the program Psequad. This working medium was adopted to perform all the equilibrium studies due to certain solubility problems of the compounds. Since the concentration of the compound used in cell studies is low (<7 μM), the final corresponding concentration of DMSO in culture media would be much lower (<1%) and also is not expected to induce modifications of biological tissues.
The two positional isomeric hybrids 4c and 5a were titrated, alone or in the presence of the metal ions, in a 50% w/w DMSO/H2O medium, at T = 25.0 ± 0.1 °C and ionic strength of (I) 0.1 M KCl, by using a 0.1 M KOH (50% w/w DMSO/H2O) titrant solution. The glass and Ag/AgCl reference electrodes were previously conditioned in different DMSO/H2O mixtures of increasing DMSO % compositions, and the response of the glass electrode was evaluated by strong acid–strong base (HCl/KOH) calibrations with the determination of the Nernst parameters by Gran’s method. […] Under these specified experimental conditions, the pKw value (14.95) was determined and subsequently used in the calculations. […]

SH-SY5Y cells = assay type: cell-based, human
Procedure: SH-SY5Y human neuroblastoma cells were kept in culture under a humidified atmosphere of 5% CO2 at 37 °C in Dulbecco’s Modified Eagle Medium/Nutrient Mixture F-12 (DMEM/F-12) (Gibco, Thermo Fisher Scientific) supplemented with 10% heat-inactivated fetal bovine serum (FBS), 50 U/mL penicillin, and 50 μg/mL streptomycin. Cells were plated at a density of 1 × 10^5 cells/mL and pre-incubated for 1 h with the compounds by adding them to the medium at the following final concentrations: 1 µM for compounds 4a, 4b, and 5b; 2 µM for compounds 4c and 5a; and 3 µM for compound 4d. Then the cells were incubated for 24 h with MPP^+ (1-methyl-4-phenylpyridinium, Sigma-Aldrich) (1 h pre-incubation + 24 h incubation) at the final concentration of 0.5 mM. MPP^+ was freshly prepared in sterile water on the day of the experiment. The compounds were dissolved in DMSO, aliquoted, and stored at −20 °C; their toxicity was previously studied through cell viability assays to select the highest non-toxic concentration of each compound.
Cell viability was measured by the colorimetric MTT (3-(4,5-dimethylthiazol-2-yl)-2,5-diphenyltetrazolium bromide) reduction assay, which follows the principle that viable cells can metabolize MTT into formazan that absorbs light at 570 nm. After the cell treatments with the compounds and MPP^+, the culture medium was removed, 150 µL of MTT (0.5 mg/mL dissolved in sodium medium) was added to each well, and the 48-well plate was incubated at 37 °C for 2 h. The formazan precipitates were then solubilized with 150 µL of 0.04 M HCl/isopropanol. The absorbance was read at 570 nm using a spectrophotometer (Spectramax Plus 384), and cell viability results were normalized to untreated SH-SY5Y cells, with the means ± SEMs derived from six different experiments performed in duplicate (N = 6). Statistical analyses were performed on GraphPad Prism 8 (GraphPad Software, San Diego, CA, USA) using one-way analysis of variance (ANOVA) followed by Tukey’s post hoc test or using Student’s t-test to determine statistical significance.

[6] = absence of copper, 20 µM inhibitor, thioflavin-T fluorescence
[7] = presence of copper (40 µM), 20 µM inhibitor, thioflavin-T fluorescence
[8] = pM = −log[M] at pH 7.4, CL/CM = 10, CM = 10^−6 M

## CCN(C)C(=O)Oc1cccc(NC(=O)c2cccc3[nH]c(-c4ccccc4O)nc23)c1 [5a]
Aβ42 [1]; [6]
  Aβ42 Self- Aggreg. Inhib.: 44.5%
Aβ42 [2]; [7]
  Aβ42 Cu-ind. Aggreg. Inhib.: 45.4%
hMAO-A
  inhibition at 10 µM: 33%
[3]; FeL2 (102), T = 25.0 ± 0.1 °C, I = 0.1 M KCl, 50% w/w DMSO/water
  log βFemHhLl, global formation constant, species (102): 23.82(4)
[3]; FeL3 (103), T = 25.0 ± 0.1 °C, I = 0.1 M KCl, 50% w/w DMSO/water
  log βFemHhLl, global formation constant, species (103): 30.20(8)
[3]; FeL (101), T = 25.0 ± 0.1 °C, I = 0.1 M KCl, 50% w/w DMSO/water
  log βFemHhLl, global formation constant, species (101): 12.53(5)
[3]; [8]
  pM (pFe): 17.4
hMAO-B
  inhibition at 10 µM: 31%
[4]; CuH−1L (1–11), T = 25.0 ± 0.1 °C, I = 0.1 M KCl, 50% w/w DMSO/water
  logβCumHhLl, global formation constant, species (1–11): 3.82(8)
[4]; CuL2 (102), T = 25.0 ± 0.1 °C, I = 0.1 M KCl, 50% w/w DMSO/water
  logβCumHhLl, global formation constant, species (102): 20.43(5)
[4]; CuL (101), T = 25.0 ± 0.1 °C, I = 0.1 M KCl, 50% w/w DMSO/water
  logβCumHhLl, global formation constant, species (101): 11.30(2)
[4]; calculated at pH 7.4, read-out: conditional dissociation constant (K’d) for the copper complex
  Kd: 0.098 nM
[4]; [8]
  pM (pCu): 13.6
[5]
  predominant neutral species HL: 94.9%

## CCN(C)C(=O)Oc1cccc(CNC(=O)c2cccc3[nH]c(-c4ccccc4O)nc23)c1 [5b]
Aβ42 [1]; [6]
  Aβ42 Self- Aggreg. Inhib.: 58.7%
Aβ42 [2]; [7]
  Aβ42 Cu-ind. Aggreg. Inhib.: 60.8%
hMAO-A
  inhibition at 10 µM: 22%
SH-SY5Y cells; 1 µM compound, 1 h pre-incubation, then 0.5 mM MPP+ for 24 h
  protection on MPP+-induced toxicity (cell viability, MTT): significant protection
hMAO-B
  inhibition at 10 µM: 34%

## COc1cc(/C=C/C(=O)CC(=O)/C=C/c2ccc(O)c(OC)c2)ccc1O [Curcumin, curcumin, reference compound]
Aβ42 [1]
  Aβ42 Self- Aggreg. Inhib.: 65.7%
Aβ42 [2]
  Aβ42 Cu-ind. Aggreg. Inhib.: 62.7%

## C[n+]1ccc(-c2ccccc2)cc1 [MPP^+, 1-methyl-4-phenylpyridinium, reference compound]
SH-SY5Y cells; MPP+ 0.5 mM, 24 h, MTT
  decrease in cell viability compared with untreated cells: approximately 30%

## C[C@H](NCc1ccc(OCc2cccc(F)c2)cc1)C(N)=O [Safinamide, safinamide, reference compound]
hMAO-A
  inhibition at 10 µM: 13%

Reference: paper PMC10179505, “Rivastigmine–Benzimidazole Hybrids as Promising Multitarget Metal-Modulating Compounds for Potential Treatment of Neurodegenerative Diseases” (International Journal of Molecular Sciences, 2023)
